What was measured:
Assay type in all cases: cell-based
Conditions in all cases: Homo sapiens
CCRF-CEM = test: NCI-60 SRB growth inhibition, one-dose and five-dose
A549/ATCC = test: as above
NCI-H226 = test: as above
TK-10 = test: as above
SF-539 = test: as above
SK-OV-3 = test: as above
NCI-H322M = test: as above
NCI-H522 = test: as above
HOP-92 = test: as above
SNB-19 = test: as above
BT-549 = test: as above
SK-MEL-5 = test: as above
HS 578 T = test: as above
U251 = test: as above
A498 = test: as above
HL-60(TB) = test: cells
LOX IMVI = test: NCI-60 SRB growth inhibition, one-dose and five-dose
OVCAR-5 = test: as above
COLO 205 = test: as above
HOP-62 = test: as above
SNB-75 = test: as above
SF-295 = test: as above
DU-145 = test: as above
M14 = test: as above
SK-MEL-28 = test: as above
786-0 = test: as above
NCI-H460 = test: as above
MDA-MB-435 = test: as above
SW-620 = test: as above
MALME-3M = test: as above
HT29 = test: as above
PC-3 = test: as above
MDA-MB-468 = test: as above
NCI/ADR-RES = test: as above
OVCAR-4 = test: as above
MOLT-4 = test: as above
RXF 393 = test: as above
SR = test: as above
K-562 = test: as above
IGROV1 = test: as above
UACC-62 = test: as above
SF-268 = test: as above
[1] = read-out: percent growth inhibition

CC(=O)Nc1ccc(/C=C/C(=O)c2cccc(NCc3ccc(CO)cc3)c2)cc1 [Compound 5j, (E)-N-(4–(3-(3-((4-(hydroxymethyl)benzyl)amino)phenyl)-3-oxoprop-1-en-1-yl)phenyl) acetamide]
GI50 (CCRF-CEM): 8.8 µM | inhibition at 10 µM (CCRF-CEM; [1]): 121% | GI50 (A549/ATCC; A549): 17.2 µM | inhibition at 10 µM (A549/ATCC; A549, read-out: percent growth inhibition): 34.3% | GI50 (NCI-H226; NCI-H226): 13.7 µM | inhibition at 10 µM (NCI-H226; NCI-H226, read-out: percent growth inhibition): 138% | GI50 (TK-10; TK-10): 16.1 µM | inhibition at 10 µM (TK-10; TK-10, read-out: percent growth inhibition): 95.1% | GI50 (SF-539; SF-539): 7.37 µM | inhibition at 10 µM (SF-539; SF-539, read-out: percent growth inhibition): 181% | GI50 (SK-OV-3; SK-OV-3): 16.3 µM | inhibition at 10 µM (SK-OV-3; SK-OV-3, read-out: percent growth inhibition): 4.73% | GI50 (NCI-H322M): 14.4 µM | inhibition at 10 µM (NCI-H322M; [1]): 38.8% | GI50 (NCI-H522; NCI-H522): 5 µM | inhibition at 10 µM (NCI-H522; NCI-H522, read-out: percent growth inhibition): 178% | GI50 (HOP-92; HOP-92): 14.1 µM | inhibition at 10 µM (HOP-92; HOP-92, read-out: percent growth inhibition): 34.6% | GI50 (SNB-19; SNB-19): 10.1 µM | inhibition at 10 µM (SNB-19; SNB-19, read-out: percent growth inhibition): 114% | GI50 (BT-549; BT-549): 12.1 µM | inhibition at 10 µM (BT-549; BT-549, read-out: percent growth inhibition): 119% | GI50 (SK-MEL-5; SK-MEL-5): 10.2 µM | inhibition at 10 µM (SK-MEL-5; SK-MEL-5, read-out: percent growth inhibition): 183% | GI50 (HS 578 T): 18.9 µM | inhibition at 10 µM (HS 578 T; [1]): 57.9% | GI50 (U251; U-251): 3.6 µM | inhibition at 10 µM (U251; U-251, read-out: percent growth inhibition): 195% | GI50 (A498; A498): 15 µM | inhibition at 10 µM (A498; A498, read-out: percent growth inhibition): 3.83% | GI50 (HL-60(TB); HL-60): 11.6 µM | inhibition at 10 µM (HL-60(TB); HL-60, read-out: percent growth inhibition): 138% | GI50 (LOX IMVI): 2.96 µM | inhibition at 10 µM (LOX IMVI; [1]): 194% | GI50 (OVCAR-5; OVCAR-5): 12.6 µM | inhibition at 10 µM (OVCAR-5; OVCAR-5, read-out: percent growth inhibition): 74% | GI50 (COLO 205; COLO 205): 16 µM | inhibition at 10 µM (COLO 205; COLO 205, read-out: percent growth inhibition): 150% | GI50 (HOP-62; HOP-62): 18.9 µM | inhibition at 10 µM (HOP-62; HOP-62, read-out: percent growth inhibition): 93.7% | GI50 (SNB-75; SNB-75): 11.9 µM | inhibition at 10 µM (SNB-75; SNB-75, read-out: percent growth inhibition): 18.2% | GI50 (SF-295; SF-295): 12.4 µM | inhibition at 10 µM (SF-295; SF-295, read-out: percent growth inhibition): 79.5% | GI50 (DU-145; DU-145): 5.03 µM | inhibition at 10 µM (DU-145; DU-145, read-out: percent growth inhibition): 84.8% | GI50 (M14; M14): 14.3 µM | inhibition at 10 µM (M14; M14, read-out: percent growth inhibition): 146% | GI50 (SK-MEL-28; SK-MEL-28): 13.4 µM | inhibition at 10 µM (SK-MEL-28; SK-MEL-28, read-out: percent growth inhibition): 167% | GI50 (786-0; 786-0): 14.1 µM | inhibition at 10 µM (786-0; 786-0, read-out: percent growth inhibition): 186% | GI50 (NCI-H460; NCI-H460): 13.4 µM | inhibition at 10 µM (NCI-H460; NCI-H460, read-out: percent growth inhibition): 148% | GI50 (MDA-MB-435; MDA-MB-435): 13.8 µM | inhibition at 10 µM (MDA-MB-435; MDA-MB-435, read-out: percent growth inhibition): 79.8% | GI50 (SW-620; SW-620): 4.27 µM | inhibition at 10 µM (SW-620; SW-620, read-out: percent growth inhibition): 157% | GI50 (MALME-3M): 11 µM | inhibition at 10 µM (MALME-3M; [1]): 141% | GI50 (HT29; HT-29): 6.06 µM | inhibition at 10 µM (HT29; HT-29, read-out: percent growth inhibition): 180% | GI50 (PC-3; PC-3): 12.3 µM | inhibition at 10 µM (PC-3; PC-3, read-out: percent growth inhibition): 81.8% | GI50 (MDA-MB-468; MDA-MB-468): 6.27 µM | inhibition at 10 µM (MDA-MB-468; MDA-MB-468, read-out: percent growth inhibition): 171% | GI50 (NCI/ADR-RES): 16.8 µM | inhibition at 10 µM (NCI/ADR-RES; [1]): 126% | GI50 (OVCAR-4; OVCAR-4): 14.8 µM | inhibition at 10 µM (OVCAR-4; OVCAR-4, read-out: percent growth inhibition): 75.5% | GI50 (MOLT-4; MOLT-4): 2.85 µM | inhibition at 10 µM (MOLT-4; MOLT-4, read-out: percent growth inhibition): 120% | GI50 (RXF 393; RXF 393): 11.8 µM | inhibition at 10 µM (RXF 393; RXF 393, read-out: percent growth inhibition): 190% | GI50 (SR): 2.61 µM | GI50 (K-562; K562): 3.43 µM | inhibition at 10 µM (K-562; K562, read-out: percent growth inhibition): 104% | GI50 (IGROV1; IGROV-1): 6.71 µM | inhibition at 10 µM (IGROV1; IGROV-1, read-out: percent growth inhibition): 119% | GI50 (UACC-62; UACC-62): 10.8 µM | inhibition at 10 µM (UACC-62; UACC-62, read-out: percent growth inhibition): 156% | GI50 (SF-268; SF-268): 15.4 µM | inhibition at 10 µM (SF-268; SF-268, read-out: percent growth inhibition): 88.8%

Reference: publication PMC11003488 (Journal of Enzyme Inhibition and Medicinal Chemistry, 2023)
